# Experimental data taken from patent US20200319163A1, “METHODS AND COMPOSITIONS OVERCOMING CANCER CELL IMMUNE RESISTANCE” (Georgetown University, priority 2019, published 2020).
# System: ADCCR1 cells
# Assay: ADCC assay (specific lysis by NK92-CD16V effector cells) on ADCC-resistant cells
# Type: cell-based, human
# Conditions: ADCCR1 pretreated with inhibitor 0.01 to 10 μmol/L for 2 hours; ADCC assay at 4 hours; FIG. 4B, 4C
# Text: Inhibitors of histone acetyltransferase C646 (cat. no. S7152), DNA methyltransferase azacytidine (cat. no. S1782), histone demethylase GSK J4 HCL (cat. no. S7070), and HDAC panobinostat (cat. no. S1030) were purchased from Selleck Chemicals. Inhibitors were solubilized in DMSO at […]. Vehicle treatment (DMSO) was used at the highest equivalent v/v used in inhibitor treatments.
# ADCC assays were preformed using A431/ADCCS1/ADCCR1 as target cells and NK92-CD16V cells as the effector cells. Target cells are plated at 10,000 cells/well overnight (A431 cells double overnight).
smiles,measurement,value
CC1=NN(c2ccc(C(=O)O)cc2)C(=O)/C1=C\c1ccc(-c2cc(C)c(C)cc2[N+](=O)[O-])o1 [C646],ADCC resistance / resensitization to ADCC (specific lysis),partially reversed
